Results as given in PubChem BioAssay (NCI).
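Values below derive from 48-hour exposures of cells grown in 96-well plates, with endpoints linearly interpolated between the two concentrations bracketing the appropriate inhibition level. TGI: concentration producing complete growth inhibition.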

Tests used:
Assay in all cases: NCI tumour cell line growth inhibition, 48 h
A498 renal = test system: A498 renal
A549 NSCLC = test system: A549 NSCLC
CAKI-1 renal = test system: CAKI-1 renal
CCRF-CEM leukemia = test system: CCRF-CEM leukemia
COLO 205 colon = test system: COLO 205 colon
DLD-1 colon = test system: DLD-1 colon
DMS 114 small cell lung = test system: DMS 114 small cell lung
DMS 273 small cell lung = test system: DMS 273 small cell lung
EKVX NSCLC = test system: EKVX NSCLC
HCC-2998 colon = test system: HCC-2998 colon
HCT-116 colon = test system: HCT-116 colon
HCT-15 colon = test system: HCT-15 colon
HL-60(TB) leukemia = test system: HL-60(TB) leukemia
HOP-18 NSCLC = test system: HOP-18 NSCLC
HOP-62 NSCLC = test system: HOP-62 NSCLC
HOP-92 NSCLC = test system: HOP-92 NSCLC
HT29 colon = test system: HT29 colon
IGROV1 ovarian = test system: IGROV1 ovarian
K-562 leukemia = test system: K-562 leukemia
KM12 colon = test system: KM12 colon
KM20L2 colon = test system: KM20L2 colon
LOX IMVI melanoma = test system: LOX IMVI melanoma
M19-MEL melanoma = test system: M19-MEL melanoma
MALME-3M melanoma = test system: MALME-3M melanoma
MCF7 breast = test system: MCF7 breast
MOLT-4 leukemia = test system: MOLT-4 leukemia
NCI-H226 lung = test system: NCI-H226 lung
NCI-H23 lung = test system: NCI-H23 lung
NCI-H460 lung = test system: NCI-H460 lung
NCI-H522 lung = test system: NCI-H522 lung
NCI/ADR-RES ovarian = test system: NCI/ADR-RES ovarian
OVCAR-3 ovarian = test system: OVCAR-3 ovarian
OVCAR-4 ovarian = test system: OVCAR-4 ovarian
OVCAR-5 ovarian = test system: OVCAR-5 ovarian
OVCAR-8 ovarian = test system: OVCAR-8 ovarian
P388 leukemia = test system: P388 leukemia
P388/ADR leukemia = test system: P388/ADR leukemia
RPMI-8226 leukemia = test system: RPMI-8226 leukemia
RXF 393 renal = test system: RXF 393 renal
SF-268 CNS = test system: SF-268 CNS
SF-295 CNS = test system: SF-295 CNS
SF-539 CNS = test system: SF-539 CNS
SK-MEL-2 melanoma = test system: SK-MEL-2 melanoma
SK-MEL-28 melanoma = test system: SK-MEL-28 melanoma
SK-MEL-5 melanoma = test system: SK-MEL-5 melanoma
SK-OV-3 ovarian = test system: SK-OV-3 ovarian
SN12C renal = test system: SN12C renal
SN12K1 renal = test system: SN12K1 renal
SNB-19 CNS = test system: SNB-19 CNS
SNB-75 CNS = test system: SNB-75 CNS
SNB-78 CNS = test system: SNB-78 CNS
U251 CNS = test system: U251 CNS
UACC-257 melanoma = test system: UACC-257 melanoma
UACC-62 melanoma = test system: UACC-62 melanoma
UO-31 renal = test system: UO-31 renal
XF 498 CNS = test system: XF 498 CNS

Structure (SMILES): C/C=C1/C(=O)O[C@]23C=C[C@@H]4C(C(=O)OC)=CO[C@H](O[C@@H]12)[C@@H]43
- TGI (A498 renal): 1.58 µM
- TGI (A549 NSCLC): 11.1 µM
- TGI (CAKI-1 renal): 3.21 µM
- TGI (CCRF-CEM leukemia): 3.56 µM
- TGI (COLO 205 colon): 3.29 µM
- TGI (DLD-1 colon): 2.94 µM
- TGI (DMS 114 small cell lung): 2.82 µM
- TGI (DMS 273 small cell lung): 39.9 µM
- TGI (EKVX NSCLC): 3.64 µM
- TGI (HCC-2998 colon): 5.99 µM
- TGI (HCT-116 colon): 1.97 µM
- TGI (HCT-15 colon): 4.66 µM
- TGI (HL-60(TB) leukemia): 3.06 µM
- TGI (HOP-18 NSCLC): 10.4 µM
- TGI (HOP-62 NSCLC): 22 µM
- TGI (HOP-92 NSCLC): 3.74 µM
- TGI (HT29 colon): 9.06 µM
- TGI (IGROV1 ovarian): 4.88 µM
- TGI (K-562 leukemia): 7.93 µM
- TGI (KM12 colon): 6.12 µM
- TGI (KM20L2 colon): 15.4 µM
- TGI (LOX IMVI melanoma): 0.725 µM
- TGI (M19-MEL melanoma): 4.38 µM
- TGI (MALME-3M melanoma): 5.61 µM
- TGI (MCF7 breast): 3.76 µM
- TGI (MOLT-4 leukemia): 3.83 µM
- TGI (NCI-H226 lung): 5.36 µM
- TGI (NCI-H23 lung): 3.51 µM
- TGI (NCI-H460 lung): 32.4 µM
- TGI (NCI-H522 lung): 2.19 µM
- TGI (NCI/ADR-RES ovarian): 6.37 µM
- TGI (OVCAR-3 ovarian): 3.95 µM
- TGI (OVCAR-4 ovarian): 2.98 µM
- TGI (OVCAR-5 ovarian): 7.69 µM
- TGI (OVCAR-8 ovarian): 11.4 µM
- TGI (P388 leukemia): 1.83 µM
- TGI (P388/ADR leukemia): 2.41 µM
- TGI (RPMI-8226 leukemia): 3.4 µM
- TGI (RXF 393 renal): 1.29 µM
- TGI (SF-268 CNS): 5.62 µM
- TGI (SF-295 CNS): 5.24 µM
- TGI (SF-539 CNS): 7.39 µM
- TGI (SK-MEL-2 melanoma): 3.76 µM
- TGI (SK-MEL-28 melanoma): 7.63 µM
- TGI (SK-MEL-5 melanoma): 4.2 µM
- TGI (SK-OV-3 ovarian): 9.75 µM
- TGI (SN12C renal): 4.88 µM
- TGI (SN12K1 renal): 3.22 µM
- TGI (SNB-19 CNS): 10.3 µM
- TGI (SNB-75 CNS): 7.38 µM
- TGI (SNB-78 CNS): 23.6 µM
- TGI (U251 CNS): 5.9 µM
- TGI (UACC-257 melanoma): 2.31 µM
- TGI (UACC-62 melanoma): 2.89 µM
- TGI (UO-31 renal): 6.98 µM
- TGI (XF 498 CNS): 3.37 µM
